Among the data in PubChem BioAssay (NCI) are TGI and GI50 values, retold here.

Test systems include COLO 205 colon; HOP-62 NSCLC; HOP-92 NSCLC; MDA-MB-231 breast; MOLT-4 leukemia; NCI-H226 lung; OVCAR-3 ovarian; OVCAR-8 ovarian; SF-268 CNS; SK-OV-3 ovarian.
Holding throughout (assay): NCI-60 cell line screen, 48 h

Values joined by “and” are separate entries in the source; they are usually repeats but may differ in a detail not shown here. Equal values may be shown once.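 1) Cells in 96-well plates. 2) Compound, 48 h, 5 concentrations. 3) Linear interpolation between surrounding doses. 4) Unreached endpoint = highest concentration. Here, GI50 denotes the concentration required for 50% inhibition of growth. The concentration for full growth arrest is given as TGI.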 *1 amine or outer side, *2 acyl side, *3 side chain or, on linkers, in order; H or OH if unused. Where a SMILES comes first, the peptide text is derived from it. [ ]: non-standard residue; d: D form. The star is where a group is joined. X12 = NCCCCC(N[*:1])C(=O)CN1CCCC1C(=O)[*:2]; Pentadecanoyl = CCCCCCCCCCCCCCC(=O)* Some results are limits rather than exact numbers.

In the case of `Cc1nc2cccc(F)c2c(=O)n1-c1nnc(C2CC2)s1`, the TGI with COLO 205 colon, in the assay with HOP-62 NSCLC, in the assay with HOP-92 NSCLC, in the assay with MDA-MB-231 breast, with MOLT-4 leukemia and with NCI-H226 lung was more than 10 µM each time. For the same compound, the TGI with OVCAR-3 ovarian, in the assay on OVCAR-8 ovarian, with SF-268 CNS and with SK-OV-3 ovarian was more than 10 µM each time.
As for `Cc1cnc2[nH]c(-c3sccc3C)cc(=O)c2c1`, the TGI was more than 25.5 µM in the assay with COLO 205 colon; more than 100 µM with HOP-62 NSCLC; more than 100 µM in the assay on HOP-92 NSCLC; more than 100 µM with MDA-MB-231 breast; more than 84.5 µM in the assay on MOLT-4 leukemia; 39.3 µM with NCI-H226 lung. Also, the TGI in the assay with OVCAR-3 ovarian, in the assay on OVCAR-8 ovarian, in the assay with SF-268 CNS and in the assay on SK-OV-3 ovarian was more than 100 µM each time.
For `N#Cc1nc(-c2ccccn2)c(-c2ccccn2)nc1C#N`, the TGI in the assay on COLO 205 colon is 10.6 µM; in the assay with HOP-62 NSCLC it was 17 µM; with HOP-92 NSCLC it was more than 45.6 µM; in the assay with MDA-MB-231 breast, more than 53 µM; in the assay with MOLT-4 leukemia it was more than 30.6 µM; with NCI-H226 lung it was 5.51 µM. The TGI in the assay on OVCAR-3 ovarian was more than 42.9 µM; in the assay on OVCAR-8 ovarian it was 15.3 µM; with SF-268 CNS, 7.12 µM; with SK-OV-3 ovarian, 7.26 µM.
For `S=C1NNC(=S)NN1`, the TGI in the assay with COLO 205 colon is more than 1 µM; with HOP-62 NSCLC, more than 1 µM; with HOP-92 NSCLC, more than 1 µM; in the assay on MDA-MB-231 breast, more than 1 µM; with MOLT-4 leukemia, 0.898 µM; in the assay with NCI-H226 lung, more than 1 µM. The TGI in the assay with OVCAR-3 ovarian, in the assay with OVCAR-8 ovarian, in the assay with SF-268 CNS and in the assay on SK-OV-3 ovarian was more than 1 µM each time.
With `CCCCCCCCCCCCCCC(=O)NC(CCCCN)C(=O)CN1CCCC1C(=O)NCC(=O)NC(Cc1ccccc1)C(=O)N1CCCC1C(=O)NC(CO)C(=O)NC(Cc1ccc(O)cc1)C(=O)NC(CCCCN)C(=O)NC(CC(C)C)C(=O)NC(CCCN=C(N)N)C(=O)N1CCCC1C(=O)NCC(N)=O` (stereo unspecified) (Pentadecanoyl-[X12]GFPSYKLRPG-NH2; configuration not given here), the GI50 in the assay with COLO 205 colon was 15.6 µM; in the assay with HOP-62 NSCLC, 20.5 µM; in the assay with HOP-92 NSCLC, 15.9 µM; in the assay on MDA-MB-231 breast it was 16.7 µM; in the assay on MOLT-4 leukemia, 16.3 µM; in the assay with NCI-H226 lung it was 17.8 µM. The GI50 was 28 µM with OVCAR-3 ovarian, 27.8 µM in the assay with OVCAR-8 ovarian, 22.4 µM in the assay on SF-268 CNS and 23.5 µM in the assay with SK-OV-3 ovarian. The TGI in the assay on COLO 205 colon turned out to be 33.8 µM; in the assay on HOP-62 NSCLC it was 45.2 µM; with HOP-92 NSCLC, 37.4 µM; with MDA-MB-231 breast it was 32.5 µM; with MOLT-4 leukemia it was 34.6 µM; with NCI-H226 lung, 38.6 µM. Besides, the TGI amounted to 64.6 µM with OVCAR-3 ovarian, 64.4 µM in the assay on OVCAR-8 ovarian, 52.9 µM in the assay with SF-268 CNS and 43.4 µM in the assay on SK-OV-3 ovarian.
`CC(=O)N1C(=O)/C(=C\C(=O)c2ccc(Cl)cc2)c2ccccc21`: the TGI worked out at 26.7 µM with COLO 205 colon; 41.2 µM in the assay on HOP-62 NSCLC; 35 µM with HOP-92 NSCLC; 30.3 µM in the assay with MDA-MB-231 breast; 9.09 µM in the assay with MOLT-4 leukemia; 44.5 µM with NCI-H226 lung. The TGI in the assay with OVCAR-3 ovarian worked out at 30.6 µM; in the assay with OVCAR-8 ovarian, 33.7 µM; in the assay with SF-268 CNS, 40.5 µM; in the assay with SK-OV-3 ovarian it was 59.9 µM.
In the case of `c1ccc2c(c1)[C@@H]1O[C@@H]1[C@@]13O[C@@]21[C@H]1O[C@H]1c1ccccc13`, the TGI in the assay with COLO 205 colon was 32.8 µM; in the assay with HOP-62 NSCLC, 30.8 µM; in the assay on HOP-92 NSCLC, 23.4 µM; in the assay with MDA-MB-231 breast, 33.6 µM; in the assay on MOLT-4 leukemia, more than 100 µM; in the assay on NCI-H226 lung it was 31.3 µM. Moreover, the TGI with OVCAR-3 ovarian is 32.1 µM; in the assay with OVCAR-8 ovarian, 39.6 µM; in the assay with SF-268 CNS, 28.3 µM; with SK-OV-3 ovarian it was 52.2 µM.
Consider `CC(=O)OC1COC(n2c(N)c(C#N)c(-c3ccccc3)c(C#N)c2=S)C(OC(C)=O)C1OC(C)=O` (stereo unspecified), for which the TGI in the assay on COLO 205 colon was more than 100 µM; in the assay with HOP-62 NSCLC it was more than 100 µM; with HOP-92 NSCLC, > 100 µM and 92.6 µM; in the assay with MDA-MB-231 breast, more than 100 µM; in the assay with MOLT-4 leukemia it was 54.3 µM and 75.4 µM; in the assay on NCI-H226 lung, more than 100 µM. Also, the TGI is > 100 µM and 97.2 µM in the assay with OVCAR-3 ovarian; > 100 µM and 97.3 µM in the assay with OVCAR-8 ovarian; more than 100 µM with SF-268 CNS; more than 100 µM in the assay on SK-OV-3 ovarian. Moreover, the GI50 in the assay on NCI-H226 lung was 41.6 µM and 89.4 µM.
In the case of `CCOC(=O)/C=C/C(Br)=C(Br)/C=C/C(=O)OCC`, the TGI is 30.8 µM in the assay with COLO 205 colon; 36.7 µM in the assay with HOP-62 NSCLC; 37.1 µM in the assay with HOP-92 NSCLC; 31.1 µM in the assay on MDA-MB-231 breast; 5.93 µM in the assay with MOLT-4 leukemia; 56.1 µM in the assay on NCI-H226 lung. Besides, the TGI was 24.9 µM in the assay with OVCAR-3 ovarian, 21.3 µM with OVCAR-8 ovarian, 40.4 µM in the assay on SF-268 CNS and 47.8 µM in the assay with SK-OV-3 ovarian.
Turning to `COc1ccc(C2=C(N)c3cc(OC)ccc3C2=O)cc1`, the TGI in the assay with COLO 205 colon, with HOP-62 NSCLC, in the assay on HOP-92 NSCLC, in the assay on MDA-MB-231 breast, in the assay on MOLT-4 leukemia and in the assay on NCI-H226 lung was more than 100 µM each time. Besides, the TGI with OVCAR-3 ovarian, in the assay on OVCAR-8 ovarian, with SF-268 CNS and with SK-OV-3 ovarian was more than 100 µM throughout.
In the case of `O=C(N(C1=CCCC1)N(c1ccccc1)c1ccccc1)C(F)(F)F`, the TGI with COLO 205 colon is 40.6 µM; in the assay with HOP-62 NSCLC it was 69.4 µM; in the assay with HOP-92 NSCLC, 33.9 µM; in the assay on MDA-MB-231 breast, 34.3 µM; with MOLT-4 leukemia, 76.2 µM; in the assay on NCI-H226 lung, 42.3 µM. The TGI was 44.4 µM with OVCAR-3 ovarian, more than 100 µM with OVCAR-8 ovarian, 48.7 µM with SF-268 CNS and more than 100 µM in the assay with SK-OV-3 ovarian.
Turning to `CC1C/C(=C\c2ccc(O)c(O)c2)C(=O)/C(=C/c2ccc(O)c(O)c2)C1` (stereo unspecified), the TGI in the assay with COLO 205 colon stood at 32.2 µM; with HOP-62 NSCLC, 24.4 µM; in the assay on HOP-92 NSCLC it was 18.7 µM; in the assay on MDA-MB-231 breast, 43.4 µM; with MOLT-4 leukemia, 20.3 µM; in the assay with NCI-H226 lung, 9.64 µM. Further, the TGI in the assay with OVCAR-3 ovarian is 18.1 µM; with OVCAR-8 ovarian, 48.7 µM; in the assay on SF-268 CNS it was 32.1 µM; with SK-OV-3 ovarian, 53.1 µM.
As for `COc1ccc2c(-c3csc(-c4c[nH]c5ccccc45)n3)c[nH]c2c1`, the TGI with COLO 205 colon was more than 57.7 µM; with HOP-62 NSCLC, 49.2 µM; in the assay with HOP-92 NSCLC it was 26.4 µM; in the assay with MDA-MB-231 breast it was more than 37.6 µM; in the assay on MOLT-4 leukemia, 19.8 µM; in the assay on NCI-H226 lung, 45.4 µM. Also, the TGI with OVCAR-3 ovarian was 51.7 µM; in the assay with OVCAR-8 ovarian, more than 60.6 µM; in the assay on SF-268 CNS, 26 µM; in the assay with SK-OV-3 ovarian it was 42.7 µM.
Take `CC(=O)c1nc(C#N)c(N)o1`: the TGI with COLO 205 colon, in the assay on HOP-62 NSCLC, in the assay on HOP-92 NSCLC, in the assay on MDA-MB-231 breast, in the assay on MOLT-4 leukemia and in the assay with NCI-H226 lung was more than 100 µM throughout. The TGI in the assay with OVCAR-3 ovarian, with OVCAR-8 ovarian, with SF-268 CNS and in the assay with SK-OV-3 ovarian was more than 100 µM in each case.
`CO/C=C(/C(=O)OC)c1ccccc1[C@H]1C[C@@H]1c1ccccc1`: the TGI with COLO 205 colon is 27.6 µM; with HOP-62 NSCLC, more than 100 µM; with HOP-92 NSCLC it was 92.4 µM; in the assay on MDA-MB-231 breast, more than 100 µM; in the assay on MOLT-4 leukemia it was more than 100 µM; in the assay on NCI-H226 lung, 74.4 µM. Moreover, the TGI in the assay on OVCAR-3 ovarian is 67.3 µM; with OVCAR-8 ovarian, more than 100 µM; in the assay with SF-268 CNS, 82.5 µM; with SK-OV-3 ovarian, 51.2 µM.
Turning to `CC(=O)OCC12C(OC(C)=O)C[C@@H](C)C3(CC(c4ccoc4)OC3=O)C1CCC(OC(C)=O)C21CO1` (stereo partly specified), the TGI in the assay on COLO 205 colon, in the assay on HOP-62 NSCLC, in the assay on HOP-92 NSCLC, with MDA-MB-231 breast, in the assay with MOLT-4 leukemia and in the assay on NCI-H226 lung was more than 100 µM in each case. The TGI in the assay with OVCAR-3 ovarian, in the assay on OVCAR-8 ovarian, in the assay with SF-268 CNS and in the assay with SK-OV-3 ovarian was more than 100 µM throughout.
For the compound `O=C1CSC(c2cc3cc(Br)ccc3nc2Cl)N1c1ccc(F)c(Cl)c1` (stereo unspecified), the TGI in the assay on COLO 205 colon is more than 50 µM; in the assay on HOP-62 NSCLC it was more than 50 µM; with HOP-92 NSCLC, more than 50 µM; with MDA-MB-231 breast it was more than 50 µM; in the assay with MOLT-4 leukemia it was 32.9 µM; with NCI-H226 lung, more than 50 µM. The TGI in the assay with OVCAR-3 ovarian, in the assay on OVCAR-8 ovarian, in the assay with SF-268 CNS and in the assay on SK-OV-3 ovarian was more than 50 µM each time.
With `Cc1nc(C)c(C(=O)NNC(=O)c2ccccc2)cc1C(=O)NNC(=O)c1ccccc1`, the TGI in the assay on COLO 205 colon, with HOP-62 NSCLC, in the assay with HOP-92 NSCLC, in the assay with MDA-MB-231 breast, in the assay on MOLT-4 leukemia and in the assay with NCI-H226 lung was more than 100 µM in each case. In addition, the TGI with OVCAR-3 ovarian, in the assay on OVCAR-8 ovarian, in the assay with SF-268 CNS and in the assay on SK-OV-3 ovarian was more than 100 µM throughout.
